# From ChEMBL document CHEMBL1155006, “Anti-retroviral and cytostatic activity of 2',3'-dideoxyribonucleoside 3'-disulfides” (Bioorg Med Chem, 2008)
# Tests used:
# [1] = tested on: Human immunodeficiency virus 1; assay: Antiviral activity against HIV1 in CEM cells assessed as reduction of viral replication at 5 to 10 uM; type: functional, CCRF-CEM; set-up: scale not given: the % may be the effect or the level left
# [2] = Cytotoxicity against human CEM/0 cells; type: cell-based, CCRF-CEM
# [3] = tested on: Human immunodeficiency virus 2; assay: Antiviral activity against HIV2 ROD in CEM/0 cells assessed as inhibition of virus-induced cytopathogenicity; type: functional, organism-based; conditions: Human immunodeficiency virus 2, ROD, CCRF-CEM
# [4] = tested on: Human immunodeficiency virus 2; assay: Antiviral activity against HIV2 ROD in TK1 deficient human CEM cells assessed as inhibition of virus-induced cytopathogenicity; type: functional, organism-based; conditions: Human immunodeficiency virus 2, ROD, CCRF-CEM
# [5] = Cytotoxicity against human Molt4/C8; type: functional, cell-based; conditions: MOLT-4
# [6] = Chemical stability assessed as half life at pH 7.2 in methanol-water mixture; type: physicochemical
# [7] = biological target: T1, Thymidine kinase, cytosolic (Homo sapiens, UniProt P04183); assay: Inhibition of recombinant TK1-mediated phosphorylation of [CH3-3H]deoxythymidine
# T1 sequence (P04183 whole entry): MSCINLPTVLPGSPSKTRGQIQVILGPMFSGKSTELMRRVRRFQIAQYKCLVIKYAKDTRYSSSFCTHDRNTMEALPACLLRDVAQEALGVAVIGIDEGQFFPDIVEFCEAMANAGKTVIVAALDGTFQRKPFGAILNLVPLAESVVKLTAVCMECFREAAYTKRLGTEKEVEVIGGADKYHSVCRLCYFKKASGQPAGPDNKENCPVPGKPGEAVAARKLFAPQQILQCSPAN
# [8] = biological target: T1, Thymidine kinase, cytosolic; assay: Inhibition of recombinant TK1-mediated phosphorylation of [CH3-3H]deoxythymidine in presence of dithiothreitol
# [9] = tested on: Human immunodeficiency virus 1; assay: Antiviral activity against HIV1 3B in CEM/0 cells assessed as inhibition of virus-induced cytopathogenicity; type: functional, organism-based; conditions: Human immunodeficiency virus 1, 3B, CCRF-CEM
# [10] = Chemical stability assessed as half life in presence of dithiothreitol; type: physicochemical
# [11] = tested on: Moloney murine sarcoma virus; assay: Inhibition of murine sarcoma virus-induced transformation of mouse embryo fibroblast C3H/3T3 cells after 6 days; conditions: C3H/3T3, 144 h
# [12] = tested on: Human immunodeficiency virus 1; assay: Antiviral activity against HIV1 in human MT4 cells; type: functional, organism-based; conditions: Human immunodeficiency virus 1, MT4
# [13] = Cytotoxicity against human MT4 cells; type: cell-based
smiles,measurement,setting,value
CSS[C@H]1C[C@H](n2cc(C)c(=O)[nH]c2=O)O[C@@H]1CO,Activity,[1],50%
same,CC50,[2],102 µM
same,EC50,[3],12 µM
same,EC50,[4],> 50 µM
same,IC50,[5],66 µM
same,half-life,[6],< 5 min
same,IC50,[7],73 µM
same,IC50,[8],333 µM
same,EC50,[9],12 µM
same,half-life,[10],< 480 min
same,EC50,[11],8.3 µM
Cc1cn([C@H]2C[C@H](SSC(Cl)(Cl)Cl)[C@@H](CO)O2)c(=O)[nH]c1=O,CC50,[2],103 µM
same,EC50,[3],17.5 µM
same,EC50,[4],22.5 µM
same,IC50,[5],55 µM
same,half-life,[6],< 5 min
same,IC50,[7],13 µM
same,IC50,[8],365 µM
same,EC50,[9],20 µM
same,half-life,[10],< 90 min
same,EC50,[11],> 20 µM
Cc1cn([C@H]2C[C@H](SSc3ccc([N+](=O)[O-])cc3)[C@@H](CO)O2)c(=O)[nH]c1=O,CC50,[2],23 µM
same,EC50,[3],7.3 µM
same,EC50,[4],≥ 10 µM
same,IC50,[5],29 µM
same,half-life,[6],< 5 min
same,EC50,[9],8 µM
same,half-life,[10],< 10 min
same,EC50,[11],0.89 µM
O=c1nc(O)ccn1[C@H]1C[C@H](SS[C@H]2C[C@H](n3ccc(O)nc3=O)O[C@@H]2CO)[C@@H](CO)O1,CC50,[2],≥ 250 µM
same,EC50,[3],> 250 µM
same,EC50,[9],> 250 µM
CSS[C@H]1C[C@H](n2cc(Br)c(=O)[nH]c2=O)O[C@@H]1CO,CC50,[2],103 µM
same,EC50,[3],≥ 50 µM
same,EC50,[9],≥ 50 µM
C=CCSS[C@H]1C[C@H](n2cc(C)c(=O)[nH]c2=O)O[C@@H]1CO,CC50,[2],53 µM
same,EC50,[3],15 µM
same,EC50,[4],> 50 µM
same,IC50,[5],34 µM
same,half-life,[6],< 5 min
same,EC50,[9],12.5 µM
same,half-life,[10],< 480 min
same,EC50,[11],2.2 µM
Cc1cn([C@H]2C[C@H](SSCCO)[C@@H](CO)O2)c(=O)[nH]c1=O,CC50,[2],347 µM
same,EC50,[3],14 µM
same,EC50,[4],> 50 µM
same,IC50,[5],128 µM
same,half-life,[6],< 5 min
same,IC50,[7],18 µM
same,IC50,[8],405 µM
same,EC50,[9],13.5 µM
same,half-life,[10],< 480 min
same,EC50,[11],5.9 µM
Cc1cn([C@H]2C[C@H](SSCCN)[C@@H](CO)O2)c(=O)[nH]c1=O,CC50,[2],437 µM
same,EC50,[3],27.5 µM
same,EC50,[4],150 µM
same,IC50,[5],163 µM
same,half-life,[6],< 5 min
same,IC50,[7],10 µM
same,IC50,[8],418 µM
same,EC50,[9],20 µM
same,half-life,[10],< 480 min
same,EC50,[11],63 µM
Nc1ccn([C@H]2C[C@H](SS[C@H]3C[C@H](n4ccc(N)nc4=O)O[C@@H]3CO)[C@@H](CO)O2)c(=O)n1,CC50,[2],216 µM
same,EC50,[3],65 µM
same,EC50,[9],73 µM
CCCCCCCCSS[C@H]1C[C@H](n2cc(C)c(=O)[nH]c2=O)O[C@@H]1CO,CC50,[2],21 µM
same,EC50,[3],4.5 µM
same,EC50,[4],> 10 µM
same,IC50,[5],26 µM
same,half-life,[6],< 5 min
same,EC50,[9],20 µM
same,half-life,[10],< 480 min
CSS[C@H]1C[C@H](n2ccc(=O)[nH]c2=O)O[C@@H]1CO,CC50,[2],170 µM
same,EC50,[3],≥ 50 µM
same,EC50,[9],> 50 µM
CSS[C@H]1C[C@H](n2ccc(N)nc2=O)O[C@@H]1CO,CC50,[2],111 µM
same,EC50,[3],14 µM
same,EC50,[4],45 µM
same,IC50,[5],149 µM
same,half-life,[6],< 5 min
same,EC50,[9],10 µM
same,EC50,[11],48 µM
Cc1cn([C@H]2C[C@H](SSc3ccccc3[N+](=O)[O-])[C@@H](CO)O2)c(=O)[nH]c1=O,CC50,[2],18.5 µM
same,EC50,[3],> 10 µM
same,EC50,[4],> 10 µM
same,IC50,[5],31 µM
same,half-life,[6],< 5 min
same,EC50,[9],10 µM
same,half-life,[10],< 10 min
same,EC50,[11],1.1 µM
O=c1[nH]c(=O)n([C@H]2C[C@H](SS[C@H]3C[C@H](n4cc(Br)c(=O)[nH]c4=O)O[C@@H]3CO)[C@@H](CO)O2)cc1Br,CC50,[2],> 250 µM
same,EC50,[3],≥ 250 µM
same,EC50,[9],127 µM
CCCCSS[C@H]1C[C@H](n2cc(C)c(=O)[nH]c2=O)O[C@@H]1CO,CC50,[2],23.3 µM
same,EC50,[3],> 10 µM
same,EC50,[4],> 10 µM
same,IC50,[5],28 µM
same,half-life,[6],< 5 min
same,EC50,[9],8 µM
same,half-life,[10],< 480 min
same,EC50,[11],1 µM
Cc1cn([C@H]2C[C@H](SSCCCCCCO)[C@@H](CO)O2)c(=O)[nH]c1=O,CC50,[2],52 µM
same,EC50,[3],15 µM
same,EC50,[4],> 50 µM
same,IC50,[5],42 µM
same,half-life,[6],< 5 min
same,EC50,[9],15 µM
same,half-life,[10],< 480 min
CCCCCCSS[C@H]1C[C@H](n2cc(C)c(=O)[nH]c2=O)O[C@@H]1CO,CC50,[2],39 µM
same,EC50,[3],6.5 µM
same,EC50,[4],> 10 µM
same,IC50,[5],27 µM
same,half-life,[6],< 5 min
same,EC50,[9],20 µM
same,half-life,[10],< 480 min
Cc1cn([C@H]2C[C@H](SS[C@H]3C[C@H](n4cc(C)c(O)nc4=O)O[C@@H]3CO)[C@@H](CO)O2)c(=O)nc1O,EC50,[12],16 µM
same,CC50,[13],34 µM
"Nc1ccn(C2C[C@H](S)[C@@H](CO)O2)c(=O)n1 (single isomer, unassigned)",EC50,[12],20 µM
Nc1ncnc2c1ncn2CCOCP(=O)(O)O [ADEFOVIR],EC50,[11],0.53 µM
C[C@H](Cn1cnc2c(N)ncnc21)OCP(=O)(O)O [TENOFOVIR ANHYDROUS],EC50,[9],5.5 µM
same,EC50,[11],0.23 µM
